Patent US20110171160A1, “POLYMER CONJUGATES OF KISS1 PEPTIDES” (Nektar Therapeutics, priority 2008, published 2011)
No end group written: not given here.

Target: T1, human GPR54 (Homo sapiens, UniProt Q969F8)
T1 construct: host or cells: Chem-1 host cells, with the promiscuous G protein Galpha15 (Gal 5 [sic])
Experiment: FLIPR calcium flux agonist assay on GPR54-expressing Chem-1 cell line
Type: cell-based
Details: time of release n/a (no release incubation); for EC50: read-out: EC50 (nM) of agonist activation at GPR54
Protocol: A FLIPR assay was conducted to screen Kisspeptin and PEG-Kisspeptin peptides for dose-dependent agonist activities on the GP[…]-Protein coupled receptor. […] All compounds were diluted in their storage solvents to produce 250× (of the top dose listed below) master stock solutions. Compounds were then transferred from their master stock solutions into a daughter plate that was used in the assay. Each 250× solution was diluted into assay buffer (1×HBSS with 20 mM HEPES and 2.5 mM Probenecid) to obtain the final top test concentration. Calcium flux agonist assay: Chemicon's cloned human GPR54-expressing cell line is made in the Chem-1 host, which supports high levels of recombinant GPR54 expression on the cell surface and contains high levels of the promiscuous G protein Gal 5 to couple the receptor to the calcium signaling pathway. […] Reference agonist was handled as mentioned above, serving as assay control. Assay was read for 180 seconds using the FLIPR^TETRA. All plates were subjected to appropriate baseline corrections. Once baseline corrections were processed, maximum fluorescence values were exported and data manipulated to calculate percentage activation and Z'. Dose response curves were generated using GraphPad Prism. The curves were fit by utilizing sigmoidal dose response (variable slope) fitting with the bottom parameter fixed at 0 (FIGS.

T1 sequence (Q969F8 whole entry): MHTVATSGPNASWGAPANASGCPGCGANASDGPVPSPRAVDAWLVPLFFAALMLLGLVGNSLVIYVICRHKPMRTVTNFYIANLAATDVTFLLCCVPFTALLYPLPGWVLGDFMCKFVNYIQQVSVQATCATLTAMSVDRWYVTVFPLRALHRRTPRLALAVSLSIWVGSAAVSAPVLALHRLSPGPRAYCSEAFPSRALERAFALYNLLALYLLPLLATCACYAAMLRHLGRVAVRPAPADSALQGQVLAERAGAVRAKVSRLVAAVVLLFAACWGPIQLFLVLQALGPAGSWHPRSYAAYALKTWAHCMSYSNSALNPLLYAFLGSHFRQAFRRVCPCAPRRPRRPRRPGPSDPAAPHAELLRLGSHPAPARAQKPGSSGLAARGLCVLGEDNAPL

| Molecule | Fold change compared to metastin | EC50 | EC50 (nM) of agonist activation at GPR54 |
| --- | --- | --- | --- |
| GTSLSPPPESSGSPQQPGLSAPHSRQIPAPQGAVLVQREKDLPNYNWNSFGLRF-NH2 [KP54] | 16 fold | 190 nM | – |
| Ald40K-KP54: Kisspeptin-54 mono-PEGylated with mPEG2-ButyrAldehyde-40K by reductive amination (stable conjugate) (GTSLSPPPESSGSPQQPGLSAPHSRQIPAPQGAVLVQREKDLPNYNWNSFGLRF-NH2; also: mono-PEGylated with mPEG2-butyraldehyde 40K by reductive amination, site not given here; UniProt Q15726 68-121, looked up) | – | – | No activity |
| Ald30K-KP13: Kisspeptin-13 mono-PEGylated with linear mPEG-ButyrALD-30K by reductive amination (stable conjugate) (LPNYNWNSFGLRF; also: mono-PEGylated with mPEG-butyraldehyde 30K by reductive amination, site not given here; UniProt Q15726 109-121, looked up) | – | – | No activity |
| CC(C)C[C@H](NC(=O)CNC(=O)[C@H](Cc1ccccc1)NC(=O)[C@H](CO)NC(=O)[C@H](CC(N)=O)NC(=O)[C@H](Cc1c[nH]c2ccccc12)NC(=O)[C@H](CC(N)=O)NC(=O)[C@H](Cc1ccc(O)cc1)NC(=O)[C@H](CC(N)=O)NC(=O)[C@@H]1CCCN1C(=O)[C@@H](N)CC(C)C)C(=O)N[C@@H](CCCNC(=N)N)C(=O)N[C@@H](Cc1ccccc1)C(N)=O [KP13] | 1 fold | 11 nM | – |
| CC(C)C[C@H](NC(=O)CNC(=O)[C@H](Cc1ccccc1)NC(=O)[C@H](CO)NC(=O)[C@H](CC(N)=O)NC(=O)[C@H](Cc1c[nH]c2ccccc12)NC(=O)[C@H](CC(N)=O)NC(=O)[C@@H](N)Cc1ccc(O)cc1)C(=O)N[C@@H](CCCNC(=N)N)C(=O)N[C@@H](Cc1ccccc1)C(N)=O [KP10] | 1 fold | 10 nM | – |
